What was measured:
[1] = molecular target: T1, Poly [ADP-ribose] polymerase 1 (Homo sapiens, UniProt P09874)
Description: Inhibition of PARP1 in human C41 cells by DAPI staining-based FITC analysis

[2] = molecular target: T1, Poly [ADP-ribose] polymerase 1; remark: listed apart in the source
Description: Inhibition of PARP1 by microplate scintillation counting

T1 sequence (P09874 whole entry): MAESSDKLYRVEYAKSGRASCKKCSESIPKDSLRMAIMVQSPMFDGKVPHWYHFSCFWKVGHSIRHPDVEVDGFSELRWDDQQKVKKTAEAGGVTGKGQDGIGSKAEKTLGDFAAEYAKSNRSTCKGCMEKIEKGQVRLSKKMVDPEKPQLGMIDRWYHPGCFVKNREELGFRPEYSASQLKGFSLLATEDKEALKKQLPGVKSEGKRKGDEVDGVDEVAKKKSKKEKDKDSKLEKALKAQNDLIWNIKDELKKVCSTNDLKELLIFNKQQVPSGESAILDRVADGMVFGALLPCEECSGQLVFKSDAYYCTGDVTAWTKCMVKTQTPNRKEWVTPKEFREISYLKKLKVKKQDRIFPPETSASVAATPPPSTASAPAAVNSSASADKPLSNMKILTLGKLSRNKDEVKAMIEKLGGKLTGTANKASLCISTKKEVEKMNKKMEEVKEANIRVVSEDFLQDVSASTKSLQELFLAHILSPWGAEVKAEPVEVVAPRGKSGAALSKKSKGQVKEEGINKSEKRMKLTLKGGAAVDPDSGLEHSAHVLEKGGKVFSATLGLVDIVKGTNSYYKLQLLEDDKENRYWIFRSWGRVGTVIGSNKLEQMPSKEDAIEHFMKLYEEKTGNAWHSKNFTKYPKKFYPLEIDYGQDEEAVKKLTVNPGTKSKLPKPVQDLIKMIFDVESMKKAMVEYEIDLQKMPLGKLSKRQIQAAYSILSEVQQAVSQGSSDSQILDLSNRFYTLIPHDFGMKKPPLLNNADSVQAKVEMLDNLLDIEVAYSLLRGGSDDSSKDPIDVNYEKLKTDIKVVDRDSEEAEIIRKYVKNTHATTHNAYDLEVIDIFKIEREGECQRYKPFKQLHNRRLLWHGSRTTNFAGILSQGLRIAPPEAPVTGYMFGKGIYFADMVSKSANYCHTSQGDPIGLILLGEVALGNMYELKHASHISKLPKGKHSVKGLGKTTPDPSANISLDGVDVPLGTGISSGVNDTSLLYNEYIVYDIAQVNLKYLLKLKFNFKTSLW

Row | SMILES | EC50 [1] [µM] | Ki [2] [µM]
1 | CN(C)Cc1ccc2c(c1)NC(=O)C1CCCN21 (stereo not drawn) | 0.646 | 0.19
2 | O=c1[nH]c2ccc(CN3CCCCC3)cc2n2cccc12 | 0.031 | –
3 | O=c1[nH]c2cc(CNCc3ccccc3)ccc2n2cccc12 | 0.164 | 0.161

Other lines, results leading:

Row | EC50 [1] [µM] | Ki [2] [µM] | SMILES
4 | 0.025 | 0.031 | O=c1[nH]c2ccc(CNC3CC3)cc2n2cccc12
5 | 0.006 | – | O=c1[nH]c2cc(CN3CCCC3)ccc2n2cccc12

— ChEMBL document CHEMBL1154012, “Synthesis and SAR of novel tricyclic quinoxalinone inhibitors of poly(ADP-ribose)polymerase-1 (PARP-1)” (Bioorg Med Chem Lett, 2009)
